Experimental data as given in PubChem BioAssay AID1259407 (Chemical Carcinogenesis Research Information System (CCRIS), 2018).
Calls of active or inactive are those of the source. How the calls were made is not given here.

Tested on: CCRIS mutagenicity, Ames/micronucleus/aberration tests
Assay: CCRIS mutagenicity studies
[1] = Test System: AMES SALMONELLA TYPHIMURIUM, Strain/Indicator: TA98, Metabolic Activation: NONE, Method: PREINCUBATION
[2] = Test System: AMES SALMONELLA TYPHIMURIUM, Strain/Indicator: TA100, Metabolic Activation: NONE, Method: PREINCUBATION
[3] = Test System: AMES SALMONELLA TYPHIMURIUM, Strain/Indicator: TA1535, Metabolic Activation: NONE, Method: PREINCUBATION
[4] = Test System: AMES SALMONELLA TYPHIMURIUM, Strain/Indicator: TA1537, Metabolic Activation: NONE, Method: PREINCUBATION

For `C=C(C)CCl`, the mutagenic call (End Point: IN VITRO CHROMOSOMAL ABERRATIONS, Test System: CHL CELLS, Metabolic Activation: RAT, LIVER, S-9, SODIUM PHENOBARBITAL AND 5,6-BENZOFLAVONE) was “active; positive (structural changes)”, the mutagenic call (Test System: AMES SALMONELLA TYPHIMURIUM, Strain/Indicator: TA97, Metabolic Activation: HAMSTER, LIVER, S-9, AROCLOR 1254 (10 OR 30%), Method: PREINCUBATION) was “inactive; negative” and the mutagenic call (Test System: AMES SALMONELLA TYPHIMURIUM, Strain/Indicator: TA97, Metabolic Activation: NONE, Method: PREINCUBATION) was “inactive; negative”. The mutagenic call (Test System: AMES SALMONELLA TYPHIMURIUM, Strain/Indicator: TA97, Metabolic Activation: RAT, LIVER, S-9, AROCLOR 1254 (10 OR 30%), Method: PREINCUBATION) was “inactive; negative”, the mutagenic call (Test System: AMES SALMONELLA TYPHIMURIUM, Strain/Indicator: TA98, Metabolic Activation: HAMSTER, LIVER, S-9, AROCLOR 1254 (10 OR 30%), Method: PREINCUBATION) was “inactive; negative” and the mutagenic call [1] was “inactive; negative”. For the same compound, the mutagenic call (Test System: AMES SALMONELLA TYPHIMURIUM, Strain/Indicator: TA98, Metabolic Activation: RAT LIVER S-9, PHENOBARBITAL AND BETA-NAPHTHOFLAVONE, Method: PREINCUBATION) was “inactive; negative”, the mutagenic call (Test System: AMES SALMONELLA TYPHIMURIUM, Strain/Indicator: TA98, Metabolic Activation: RAT, LIVER, S-9, AROCLOR 1254 (10 OR 30%), Method: PREINCUBATION) was “inactive; negative” and the mutagenic call (Test System: AMES SALMONELLA TYPHIMURIUM, Strain/Indicator: TA100, Metabolic Activation: HAMSTER, LIVER, S-9, AROCLOR 1254 (10 OR 30%), Method: PREINCUBATION) was “inactive; negative”. For the same compound, the mutagenic call (Test System: AMES SALMONELLA TYPHIMURIUM, Strain/Indicator: TA100, Metabolic Activation: NONE, Method: LIQUID SUSPENSION) was “active; positive”, the mutagenic call [2] was “inactive; negative” and the mutagenic call (Test System: AMES SALMONELLA TYPHIMURIUM, Strain/Indicator: TA100, Metabolic Activation: RAT LIVER S-9, PHENOBARBITAL AND BETA-NAPHTHOFLAVONE, Method: PREINCUBATION) was “inactive; negative”. For the same compound, the mutagenic call (Test System: AMES SALMONELLA TYPHIMURIUM, Strain/Indicator: TA100, Metabolic Activation: RAT, LIVER, S-9, AROCLOR 1254 (10 OR 30%), Method: PREINCUBATION) was “inactive; negative”, the mutagenic call (Test System: AMES SALMONELLA TYPHIMURIUM, Strain/Indicator: TA100, Metabolic Activation: RAT, LIVER, S-9, Method: LIQUID SUSPENSION) was “active; positive” and the mutagenic call (Test System: AMES SALMONELLA TYPHIMURIUM, Strain/Indicator: TA102, Metabolic Activation: NONE, Method: PREINCUBATION) was “inactive; negative”. For the same compound, the mutagenic call (Test System: AMES SALMONELLA TYPHIMURIUM, Strain/Indicator: TA102, Metabolic Activation: RAT LIVER S-9, PHENOBARBITAL AND BETA-NAPHTHOFLAVONE, Method: PREINCUBATION) was “inactive; negative”, the mutagenic call (Test System: AMES SALMONELLA TYPHIMURIUM, Strain/Indicator: TA102, Metabolic Activation: RAT, LIVER, S-9, PHENOBARBITAL AND 5,6-BENZOFLAVONE, Method: STANDARD PLATE) was “inactive; negative” and the mutagenic call (Test System: AMES SALMONELLA TYPHIMURIUM, Strain/Indicator: TA104, Metabolic Activation: NONE, Method: PREINCUBATION) was “inactive; negative”. For the same compound, the mutagenic call (Test System: AMES SALMONELLA TYPHIMURIUM, Strain/Indicator: TA104, Metabolic Activation: RAT LIVER S-9, PHENOBARBITAL AND BETA-NAPHTHOFLAVONE, Method: PREINCUBATION) was “inactive; negative”, the mutagenic call (Test System: AMES SALMONELLA TYPHIMURIUM, Strain/Indicator: TA1535, Metabolic Activation: HAMSTER, LIVER, S-9, AROCLOR 1254 (10 OR 30%), Method: PREINCUBATION) was “inactive; negative” and the mutagenic call [3] was “inactive; negative”. For the same compound, the mutagenic call (Test System: AMES SALMONELLA TYPHIMURIUM, Strain/Indicator: TA1535, Metabolic Activation: RAT LIVER S-9, PHENOBARBITAL AND BETA-NAPHTHOFLAVONE, Method: PREINCUBATION) was “inactive; negative”, the mutagenic call (Test System: AMES SALMONELLA TYPHIMURIUM, Strain/Indicator: TA1535, Metabolic Activation: RAT, LIVER, S-9, AROCLOR 1254 (10 OR 30%), Method: PREINCUBATION) was “inactive; negative” and the mutagenic call (Test System: AMES SALMONELLA TYPHIMURIUM, Strain/Indicator: TA1537, Metabolic Activation: HAMSTER, LIVER, S-9, AROCLOR 1254 (10 OR 30%), Method: PREINCUBATION) was “inactive; negative”. For the same compound, the mutagenic call [4] was “inactive; negative”, the mutagenic call (Test System: AMES SALMONELLA TYPHIMURIUM, Strain/Indicator: TA1537, Metabolic Activation: RAT LIVER S-9, PHENOBARBITAL AND BETA-NAPHTHOFLAVONE, Method: PREINCUBATION) was “inactive; negative” and the mutagenic call (Test System: AMES SALMONELLA TYPHIMURIUM, Strain/Indicator: TA1537, Metabolic Activation: RAT, LIVER, S-9, AROCLOR 1254 (10 OR 30%), Method: PREINCUBATION) was “inactive; negative”. The mutagenic call (Test System: AMES SALMONELLA TYPHIMURIUM, Strain/Indicator: TA2638, Metabolic Activation: RAT, LIVER, S-9, PHENOBARBITAL AND 5,6-BENZOFLAVONE, Method: STANDARD PLATE) was “inactive; negative”, the mutagenic call (Test System: E. COLI, Strain/Indicator: WP2 (PKM101), Metabolic Activation: RAT, LIVER, S-9, PHENOBARBITAL AND 5,6-BENZOFLAVONE, Method: STANDARD PLATE) was “inactive; negative” and the mutagenic call (Test System: E. COLI, Strain/Indicator: WP2 UVRA (PKM101), Metabolic Activation: RAT, LIVER, S-9, PHENOBARBITAL AND 5,6-BENZOFLAVONE, Method: STANDARD PLATE) was “inactive; negative”. For the same compound, the mutagenic call (Test System: E.COLI, Strain/Indicator: WP2UVRA/PKM101, Metabolic Activation: NONE, Method: PREINCUBATION) was “inactive; negative”, the mutagenic call (Test System: E.COLI, Strain/Indicator: WP2UVRA/PKM101, Metabolic Activation: RAT LIVER S-9, PHENOBARBITAL AND BETA-NAPHTHOFLAVONE, Method: PREINCUBATION) was “active; positive” and the mutagenic call (Test System: E.COLI, Strain/Indicator: WP2UVRA, Metabolic Activation: NONE, Method: PREINCUBATION) was “inactive; negative”. The mutagenic call (Test System: E.COLI, Strain/Indicator: WP2UVRA, Metabolic Activation: RAT LIVER S-9, PHENOBARBITAL AND BETA-NAPHTHOFLAVONE, Method: PREINCUBATION) was “inactive; negative”.
`[Cl][Pd][Cl]` was tested, and the mutagenic call (Test System: AMES SALMONELLA TYPHIMURIUM, Strain/Indicator: TA98, Metabolic Activation: HAMSTER, LIVER, S-9, AROCLOR 1254 (10%), Method: PREINCUBATION) was “inactive; negative”, the mutagenic call [1] was “inactive; negative” and the mutagenic call (Test System: AMES SALMONELLA TYPHIMURIUM, Strain/Indicator: TA98, Metabolic Activation: RAT, LIVER, S-9, AROCLOR 1254 (10%), Method: PREINCUBATION) was “inactive; negative”. For the same compound, the mutagenic call (Test System: AMES SALMONELLA TYPHIMURIUM, Strain/Indicator: TA100, Metabolic Activation: HAMSTER, LIVER, S-9, AROCLOR 1254 (10%), Method: PREINCUBATION) was “inactive; negative”, the mutagenic call [2] was “inactive; negative” and the mutagenic call (Test System: AMES SALMONELLA TYPHIMURIUM, Strain/Indicator: TA100, Metabolic Activation: RAT, LIVER, S-9, AROCLOR 1254 (10%), Method: PREINCUBATION) was “inactive; negative”. The mutagenic call (Test System: AMES SALMONELLA TYPHIMURIUM, Strain/Indicator: TA1535, Metabolic Activation: HAMSTER, LIVER, S-9, AROCLOR 1254 (10%), Method: PREINCUBATION) was “inactive; negative”, the mutagenic call [3] was “inactive; negative” and the mutagenic call (Test System: AMES SALMONELLA TYPHIMURIUM, Strain/Indicator: TA1535, Metabolic Activation: RAT, LIVER, S-9, AROCLOR 1254 (10%), Method: PREINCUBATION) was “inactive; negative”. The mutagenic call (Test System: AMES SALMONELLA TYPHIMURIUM, Strain/Indicator: TA1537, Metabolic Activation: HAMSTER, LIVER, S-9, AROCLOR 1254 (10%), Method: PREINCUBATION) was “inactive; negative”, the mutagenic call [4] was “inactive; negative” and the mutagenic call (Test System: AMES SALMONELLA TYPHIMURIUM, Strain/Indicator: TA1537, Metabolic Activation: RAT, LIVER, S-9, AROCLOR 1254 (10%), Method: PREINCUBATION) was “inactive; negative”.
With `COC(=O)[C@@H](C)CN=[N+]=[N-]` the mutagenic call (Test System: AMES SALMONELLA TYPHIMURIUM, Strain/Indicator: TA100, Metabolic Activation: RAT, LIVER, S-9, PCB, Method: PREINCUBATION) was “active; positive”.
